{"source": "patent US7638509B2", "about": "“Diene compounds and formulations” (priority 2003, dated 2009)", "key": {"mutant AR": {"biological_target": "T1, mutant AR (Homo sapiens, UniProt P10275, T878A)", "T1 construct": "LNCaP without transfection; endogenous in cells; host or cells: LNCaP", "T1 sequence (P10275 1-920 T878A)": "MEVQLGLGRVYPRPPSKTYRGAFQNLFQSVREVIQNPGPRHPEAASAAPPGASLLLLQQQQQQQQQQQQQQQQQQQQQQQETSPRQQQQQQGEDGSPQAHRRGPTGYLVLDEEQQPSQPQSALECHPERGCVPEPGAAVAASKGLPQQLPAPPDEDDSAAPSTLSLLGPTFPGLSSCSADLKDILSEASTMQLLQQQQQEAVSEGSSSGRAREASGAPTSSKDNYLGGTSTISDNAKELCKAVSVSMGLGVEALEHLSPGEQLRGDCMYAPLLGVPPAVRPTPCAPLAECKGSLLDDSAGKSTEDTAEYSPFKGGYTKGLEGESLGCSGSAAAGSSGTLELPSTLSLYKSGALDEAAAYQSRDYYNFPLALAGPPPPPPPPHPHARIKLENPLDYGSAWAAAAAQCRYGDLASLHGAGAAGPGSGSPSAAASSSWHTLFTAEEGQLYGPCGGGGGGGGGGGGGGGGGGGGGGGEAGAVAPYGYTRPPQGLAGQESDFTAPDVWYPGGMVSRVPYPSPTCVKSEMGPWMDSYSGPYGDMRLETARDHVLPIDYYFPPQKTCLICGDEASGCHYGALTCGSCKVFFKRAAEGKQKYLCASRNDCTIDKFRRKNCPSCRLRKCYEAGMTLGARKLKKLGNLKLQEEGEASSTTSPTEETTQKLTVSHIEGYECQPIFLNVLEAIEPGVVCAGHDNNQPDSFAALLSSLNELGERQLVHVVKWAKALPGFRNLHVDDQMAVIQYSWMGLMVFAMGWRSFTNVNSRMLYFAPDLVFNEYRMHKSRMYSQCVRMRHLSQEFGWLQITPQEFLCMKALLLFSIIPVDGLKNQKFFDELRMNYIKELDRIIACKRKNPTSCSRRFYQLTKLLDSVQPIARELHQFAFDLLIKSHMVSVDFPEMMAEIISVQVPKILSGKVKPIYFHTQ", "test": "AR transcription, MMTV-Luc reporter in LNCaP cells", "format": "cell-based", "protocol": "(§1) Cell Culture, Transfection, and Reporter Gene Assay. The human prostate cancer cell lines, LNCaP, PC-3, and DU145, and non-prostate cancer cell line COS-1 were maintained in RPMI or Dulbecco's modified Eagle's medium (DMEM) (Life Technologies) supplemented with 10% fetal bovine serum (FBS). […] Briefly, cells seeded to reach a density of 50-60% confluence in 12 well tissue culture plates were transfected with 1.5 μg of DNA according to “SuperFect transfection” instructions (Qiagen). After 2-3 h incubation, cells were treated with medium supplemented with charcoal-stripped FBS containing either ethanol or ligands for 24 h. The cells were then harvested and whole cell extracts were used for Luc assay. The Luc activity was determined using a Dual-Luciferase Reporter Assay System (Promega) and luminometer.\n(§2) The pSG5-AR was co-transfected in COS-1 cells. […] Values were obtained from the mean±SD of at least three determinations. DU145 cells were transfected with the pSG5-AR and MMTV-Luc in the presence or absence of pSG5-ARA70. […] Values were obtained for the mean±SD of at least three determinations."}, "PSA": {"tested_on": "PSA", "test": "PSA expression in LNCaP cells, Western blot", "format": "cell-based, human", "details": "48 h, 1 nM DHT or 1 μM HF, casodex, ADEK in absence of DHT", "description": "Western Blot. […] An antibody for -actin (Santa Cruz Biotechnology) was used as the internal control. Blots were quantitated by Collage software (Fotodyne).\nThe 33-kDa protein was quantitated. β-Actin expression was used as an internal control. […] The mean±SD of three separate experiments was determined. […] Total cell number was counted by hemocytometer. The mean of at least three determinations was determined."}, "AR [1]": {"biological_target": "T2, AR (Homo sapiens, UniProt P10275, T878A)", "T2 construct": "LNCaP without transfection; endogenous in cells; host or cells: LNCaP", "T2 sequence (P10275 1-920 T878A)": "T1 sequence (P10275 1-920 T878A)", "test": "Competitive [3H]-R1881 ligand binding assay, LNCaP whole cell extracts", "details": "1 nM [3H]-R1881, unlabeled ligand 1-10,000 nM, relative to DHT", "protocol": "(§3) Ligand Binding Assay. Whole cell extracts from COS-1 with transient transfection of pSG5-AR, or LNCaP without transfection, were incubated for 2 h at 37° C. with 1 nM [^3H]-synthetic androgen methyltrienolone (R1881) in the presence and absence of increasing concentrations (1-10,000 nM) of unlabeled ligands. Then, hydroxyapatite (Bio-Rad) was added and stirred for 15 min at 4° C. After centrifugation and washing, radioactivity was determined by scintillation counting.\n(§4) Clinically available antiandrogens have an affinity for the AR, allowing a competition with androgens for binding. To determine whether ADEK has this common feature of AR antagonists, the competitive androgen binding assay was performed."}, "AR [2]": {"biological_target": "T2, AR", "test": "Adiol-induced AR transcription, MMTV-Luc in LNCaP cells", "format": "cell-based", "details": "2.5 nM Adiol, compound at 1 μM", "protocol": "(§5) Cell Culture, Transfection, and Reporter Gene Assay. The human prostate cancer cell lines, LNCaP, PC-3, and DU145, and non-prostate cancer cell line COS-1 were maintained in RPMI or Dulbecco's modified Eagle's medium (DMEM) (Life Technologies) supplemented with 10% fetal bovine serum (FBS). Transfections and luciferase (Luc) assays were performed as previously described (Miyamoto, H., Yeh, S., Wilding, G. & Chang, C. (1998) Proc. Natl. Acad. Sci. USA 95, 7379-7384; Miyamoto, H., Rahman, M., Takatera, H., Kang, H.-Y., Yeh, S., Chang, H.-C., Nishimura, K., Fujimoto, N. & Chang, C. (2002) J. Biol. Chem. 277, 4609-4617). Briefly, cells seeded to reach a density of 50-60% confluence in 12 well tissue culture plates were transfected with 1.5 μg of DNA according to “SuperFect transfection” instructions (Qiagen). After 2-3 h incubation, cells were treated with medium supplemented with charcoal-stripped FBS containing either ethanol or ligands for 24 h. The cells were then harvested and whole cell extracts were used for Luc assay. The Luc activity was determined using a Dual-Luciferase Reporter Assay System (Promega) and luminometer.\n(§6) Effect of ADEK on AR Transcription. […] (set as 100%). Values were obtained from the mean±SD of at least three determinations."}, "wild-type AR [3]": {"biological_target": "T3, wild-type AR (Homo sapiens, UniProt P10275)", "T3 sequence (P10275 1-920)": "T1 sequence (P10275 1-920 T878A) with A878T", "test": "Adiol-induced AR transcription, MMTV-Luc in PC-3 cells with pSG5-AR", "format": "cell-based", "design": "expressed in transfected cells; host or cells: PC-3", "details": "PC-3, 2.5 nM Adiol, compound at 1 μM", "protocol": "as §5, §6"}, "wild-type AR [4]": {"biological_target": "T3, wild-type AR", "test": "AR transcription, MMTV-Luc reporter in COS-1 cells co-transfected with pSG5-AR", "format": "cell-based", "design": "expressed in transfected cells; host or cells: COS-1", "details": "COS-1, 1 nM DHT", "protocol": "as §1, §2"}, "wild-type AR [5]": {"biological_target": "T3, wild-type AR", "test": "Competitive [3H]-R1881 ligand binding assay, extracts of COS-1 transfected with wild-type AR", "design": "expressed in transfected cells; host or cells: COS-1", "details": "1 nM [3H]-R1881, unlabeled ligand 1-10,000 nM, relative to DHT", "protocol": "as §3, §4"}}, "note": "Numbering of substitutions follows the chain as printed.", "data": [{"smiles": "CC(C)(O)C(=O)Nc1ccc([N+](=O)[O-])c(C(F)(F)F)c1", "note": "[HF, hydroxyflutamide, reference compound]", "values": [{"measurement": "suppression of DHT-induced mutant AR transcription (in words)", "setting": "mutant AR; 10 μM", "value": "no suppression"}, {"measurement": "agonist / androgenic activity on mutant AR transcription (in words)", "setting": "mutant AR; MMTV-Luc, HF at 10 μM", "value": "full agonist"}, {"measurement": "endogenous PSA expression over mock treatment", "setting": "PSA", "value": 3.5, "unit": "fold"}, {"measurement": "RBA in LNCaP", "setting": "AR [1]", "value": 23.0}, {"measurement": "block of Adiol-induced AR transcription (in words)", "setting": "AR [2]", "value": "failed to significantly block"}, {"measurement": "block of Adiol-induced AR transcription (in words)", "setting": "wild-type AR [3]", "value": "failed to significantly block"}, {"measurement": "suppression of DHT-induced wild-type AR transcription compared with ADEK at 1 μM (21%), in words", "setting": "wild-type AR [4]", "value": "similar"}, {"measurement": "RBA in COS-1 with AR", "setting": "wild-type AR [5]", "value": 17.1}]}]}
